Columns and labels:
β44–V2R = experiment: Arrestin recruitment bias from GloSensor cAMP; type: cell-based, turkey (Meleagris gallopavo); conditions: with reference to isoprenaline, equiactive comparison approach
MBP–β1AR6P = MBP–β1AR6P (Meleagris gallopavo, UniProt P07700, C116L/C358A/D322K/DEL244-271/E130W/F327A/F338M/M44C/M90V/V103C); experiment: Radioligand saturation binding, receptor in nanodiscs; design: species or system turkey (Meleagris gallopavo); conditions: read-out: apparent Kd
MBP–β1AR6P + βarr1 = MBP–β1AR6P + βarr1 (Meleagris gallopavo, UniProt P07700, C116L/C358A/D322K/DEL244-271/E130W/F327A/F338M/M44C/M90V/V103C); experiment: Radioligand saturation binding, receptor in nanodiscs with βarr1; design: species or system turkey (Meleagris gallopavo); conditions: read-out: apparent Kd
MBP–β1AR6P + mini-Gs = MBP–β1AR6P + mini-Gs (Meleagris gallopavo, UniProt P07700, C116L/C358A/D322K/DEL244-271/E130W/F327A/F338M/M44C/M90V/V103C); experiment: Radioligand saturation binding, receptor in nanodiscs with mini-Gs; design: species or system turkey (Meleagris gallopavo); conditions: read-out: apparent Kd

Row | Kd (MBP–β1AR6P) | Kd (MBP–β1AR6P + βarr1) | Kd (MBP–β1AR6P + mini-Gs) | SMILES | bias factor (arrestin recruitment bias) (β44–V2R)
1 | – | – | – | COc1ccc(CC(C)NCC(O)c2ccc(O)c(NC=O)c2)cc1 (stereo not shown) [formoterol] | 2.3 ± 0.4
2 | 6 nM | 6 nM | 1.5 nM | CCCc1ccccc1OCC(O)CNC(C)C (stereo not shown) [[^3H]DHA, tritiated dihydroalprenolol] | –

— article PMC7115876 (Nature, 2020)
